In patent US20230027295A1, “FXIA INHIBITORS AND PREPARATION METHOD THEREFOR AND PHARMACEUTICAL USE THEREOF” (Shenzhen Salubris Pharmaceuticals Co., Ltd., priority 2019, published 2023):

How the values were obtained:
[1] = target: Human Factor XIa (Homo sapiens, UniProt P03951); experiment: Inhibition of human coagulation factor XIa by absorptiometry (substrate S-2366); type: biochemical; settings: 37° C., 20 min incubation, absorbance 405 nm; read-out: hFXIa IC50
Protocol: Example 50: Detection of the Biological Activity of the Compounds of the Present Invention on the Inhibition of Human Coagulation Factor XIa by Absorptiometry
Buffer: 145 mM NaCl, 5 mM KCl, 1 mg/mL PEG 8000, 30 mM HEPES, pH 7.4
10 mM test compound dissolved in 100% DMSO was diluted with 100% DMSO to […]; 98 μL of FXIa enzyme solution (77.7 ng/mL) was added to each well of a 96-well plate, and 98 μL of buffer was added to the blank wells. 2 μL of compounds of different concentrations were added, and the blank and control wells were added with DMSO instead. They were mixed with a shaker, and incubated at 37° C. for 20 minutes.
Finally, 100 μL of 800 μM substrate was added to each well, and its absorbance was measured at 405 nm.

[2] = tested on: human plasma; experiment: Anticoagulant effect on human plasma in vitro (APTT determination); type: biochemical; settings: for aPTT EC1.5×: concentration giving APTT of 1.5× blank control; for aPTT EC2×: concentration giving APTT of 2× blank control
Protocol: Example 51: Determination of the Anticoagulant Effect of the Compounds of the Present Invention on Human Plasma In Vitro
Plasma: Human blood was collected in a vacuum blood collection tube containing 3.2% sodium citrate (volume ratio 1:9), centrifuged at 3000 rpm for 10 min at room temperature, and the plasma was collected, divided into EP tubes, and stored at −80° C.
Reagents: APTT assay kit (Activated partial thromboplastin time assay kit, mindray), calcium chloride solution.
Instrument: coagulation meter (mindray, C2000-A)
The frozen human plasma in aliquots was thawed at room temperature and mixed well. 10 mM test compound dissolved in 100% DMSO was diluted with 100% DMSO to 1500, 750, 375, 187.5, 93.75, 46.88, 23.44, 11.72 μM. 98 μL of human plasma was added to a 1.5 mL EP tube, then 2 μL of compounds of different concentrations were added, and 2 μL of 100% DMSO was added for the blank group. They were incubated under a water bath at 37° C. for 10 min, and the samples were placed in the corresponding position of the coagulation analyzer to conduct APTT determination of the compounds.
Curve fitting was performed with GraphPad Prism software, and EC1.5× and EC2× values were calculated respectively, i.e., the concentrations of the compounds corresponding to the APTT of 1.5× and 2× blank control group.

[3] = Rat pharmacokinetics; type: in vivo, SD rats; parameters: AUC: concentration or dose not given beside the values; settings: for AUC / Cmax / Tmax / clearance / half-life / Vd: male, SD, plasma; for Vd: read-out: Vss
Description: (§1) Example 53: Investigation of the Pharmacokinetic Characteristics of the Compounds of the Present Invention
(§2) SD rats: male, 180-250 g, purchased from Guangdong Medical Laboratory Animal Center. Cynomolgus monkey: male, 4-6 kg, purchased from Guangzhou Chunsheng Biological Research Institute Co., Ltd. Beagle dog: male, 8-12 kg, developed in Kanglong Chemical (Ningbo) New Drug Technology Co., Ltd.
(§3) Reagents: DMSO (dimethyl sulfoxide), PEG-400 (polyethylene glycol 400), normal brine, heparin, acetonitrile, formic acid, and propranolol (internal standard) are commercially available.
(§4) Instrumentation: Thermo Fisher Scientific LC-MS (U300 UPLC, TSQ […] ULTRA triple quadrupole mass spectrometer).
(§5) The compound was weighed and dissolved in DMSO-PEG-400-physiological brine (5:60:35, v/v/v) system. After the rats/monkeys were administered intravenously or by gavage, 200 μL of venous blood was collected at 5 min (not collected when administered by gavage), 15 min, 30 min, 1 h, 2 h, 4 h, 6 h, 8 h, and 24 h in heparinized EP tubes, centrifuged at 12000 rpm for 2 min, and the plasma was frozen at −80° C. for testing. A certain amount of the test substance was precisely weighed and dissolved in DMSO to 1 mg/mL, which was used as a stock solution. An appropriate amount of compound stock solution was accurately pipetted and diluted with acetonitrile to prepare a standard series of solutions. 20 μL of each of the above standard series solutions were accurately pipetted, added with 180 μL of blank plasma, vortexed and mixed to prepare plasma samples equivalent to plasma concentrations of 1, 3, 10, 30, 100, 300, 1000, 3000 and 5000 ng/mL. Two-sample analysis was performed for each concentration to establish a standard curve. 20 μL of plasma was taken out, added with 200 μL of internal standard propranolol (5 ng/mL) in acetonitrile, vortexed and mixed. It was centrifuged at 4000 rpm for 5 min, and the supernatant was collected for LC-MS analysis. LC-MS detection conditions were as follows:
(§6) Chromatographic column: Thermo Scientific […] GOLD C-18 UPLC column, 100*2.1 mm, 1.9 μm.
(§7) Mobile phase: water (0.1% formic acid)-acetonitrile for gradient elution according to the table below.
(§8) After blood drug concentrations being detected by LC-MS, WinNonlin 6.1 software was used to calculate pharmacokinetic parameters by non-compartmental model method.

[4] = Cynomolgus monkey pharmacokinetics; type: in vivo; parameters: AUC: concentration or dose not given beside the values; settings: for AUC / Cmax / Tmax / clearance / half-life / Vd: male, plasma; for Vd: read-out: Vss
Description: as §1, §2, §3, §4, §5, §6, §7, §8

[5] = Caco-2 permeability; type: in vitro ADME; settings: human
Protocol: Example 54: Investigation of the Caco-2 Data of the Compounds of the Present Invention
Medium: DMEM (Corning), FBS (Corning), double antibody (Solarbio), 96-well HTS transwell plate (Corning), Caco-2 cells.
Experimental method: Caco-2 cells were cultured on 96-well HTS transwell plate for 14-18 days, and the TEER value of each well was detected to ensure that the cells in each well formed a complete monolayer. Drug was added and it was incubated for 2h to detect the drug concentrations of A-B and B-A.
Data processing: PappA-B and PappB-A values were calculated: Papp=(VA×[drug]acceptor)/(Area×Time×[drug]initial, donor); Efflux Ratio was calculated: Efflux Ratio=Papp(B-A)/Papp(A-B).

[6] = Caco-2 monolayer, 2h incubation

Sequence of Human Factor XIa (P03951 388-625 limits assumed): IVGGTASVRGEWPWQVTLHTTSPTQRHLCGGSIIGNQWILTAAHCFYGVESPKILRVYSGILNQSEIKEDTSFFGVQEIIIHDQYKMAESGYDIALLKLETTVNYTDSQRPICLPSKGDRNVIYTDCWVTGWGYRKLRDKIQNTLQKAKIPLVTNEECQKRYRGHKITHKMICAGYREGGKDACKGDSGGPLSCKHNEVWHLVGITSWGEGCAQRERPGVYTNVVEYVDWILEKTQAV
Sequence of Human Factor XIa (P03951 19-387 partner limits assumed): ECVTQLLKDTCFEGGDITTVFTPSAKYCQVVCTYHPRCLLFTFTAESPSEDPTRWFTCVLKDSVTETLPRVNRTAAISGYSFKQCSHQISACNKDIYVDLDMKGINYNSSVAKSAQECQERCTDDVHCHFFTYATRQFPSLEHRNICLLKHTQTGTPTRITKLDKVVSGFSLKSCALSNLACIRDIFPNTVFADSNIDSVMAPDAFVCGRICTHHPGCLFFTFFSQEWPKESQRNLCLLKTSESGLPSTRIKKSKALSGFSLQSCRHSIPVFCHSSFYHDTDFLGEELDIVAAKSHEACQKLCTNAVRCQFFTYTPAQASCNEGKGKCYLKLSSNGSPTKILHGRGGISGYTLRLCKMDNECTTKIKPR

Row | Structure (SMILES) | IC50 [1] [nM] | F ([3]; ig) [%] | AUC ([3]; iv) [ng·h/mL] | Cmax ([3]; iv) [ng/mL] | Tmax ([3]; iv) [min] | clearance ([3]; iv) [mL/min/kg] | half-life ([3]; iv) [min] | Vd ([3]; iv) [L/kg] | AUC ([3]; po, ig) [ng·h/mL] | Cmax ([3]; po, ig) [ng/mL] | Tmax ([3]; po, ig) [min] | half-life ([3]; po, ig) [min] | F ([4]; ig) [%] | AUC ([4]; iv) [ng·h/mL] | Cmax ([4]; iv) [ng/mL] | Tmax ([4]; iv) [min] | clearance ([4]; iv) [mL/min/kg] | half-life ([4]; iv) [min] | aPTT EC1.5× [2] [µM] | aPTT EC2× [2] [µM] | also measured
1 | CC(=O)c1ccc(Cl)cc1-c1cc(=O)n([C@@H](Cc2ccccc2)C(=O)Nc2ccc(C(=O)O)cc2)nc1OC1COC1 [Example 24, (S)-4-(2-(4-(2-acetyl-5-chlorophenyl)-6-oxo-3-(oxetan-3-yloxy)-pyridazine-1(6H)-yl)-3-phenylpropanamido)benzoic acid] | 23 | 3.9 | 457 | 1270 | 4.98 | 36.5 | 168 | 1.14 | 93.5 | 43.7 | 30 | 104 | – | – | – | – | – | – | 0.769 | 2.785 | –
2 | COCCOc1nn([C@@H](Cc2ccccc2)C(=O)Nc2ccc(C(=O)O)cc2)c(=O)cc1-c1cc(Cl)ccc1C(C)=O [Example 21, (S)-4-(2-(4-(2-acetyl-5-chlorophenyl)-3-(2-methoxyethoxy)-6-oxopyridazin-1(6H)-yl)-3-phenylpropanamido)benzoic acid] | 21.9 | 14.9 | 743 | 1600 | 5.99 | 25.3 | 29.5 | 0.277 | 608 | 166 | 90 | 139 | 6.3 | 455 | 1010 | 4.98 | 18.3 | 76.2 | 0.777 | 3.848 | Vd ([4]; iv): 0.699 L/kg; AUC ([4]; po, ig): 357 ng·h/mL; Cmax ([4]; po, ig): 27.2 ng/mL; Tmax ([4]; po, ig): 90 min; half-life ([4]; po, ig): 684 min
3 | COc1cn([C@@H](Cc2ccccc2)C(=O)Nc2ccc(C(=O)O)cc2)c(=O)cc1-c1cc(Cl)ccc1C(C)=O [Compound B, (S)-4-(2-(4-(2-acetyl-5-chlorophenyl)-5-methoxy-2-oxopyridinium-1(2H)-yl)-3-phenylpropanamido)benzoic acid, reference compound] | – | – | – | – | – | – | – | – | – | – | – | – | 4.1 | 4220 | 8760 | 4.98 | 4.1 | 72 | – | – | efflux ratio at 2 h ([5]; Caco-2, Papp(B-A)/Papp(A-B)): 8.75; Papp A→B at 2 h [5, 6]: 1.55 ×10⁻⁶ cm/s; Papp B→A at 2 h [5, 6]: 13.6 ×10⁻⁶ cm/s; Vd ([4]; iv): 0.2 L/kg; AUC ([4]; po, ig): 1490 ng·h/mL; Cmax ([4]; po, ig): 108 ng/mL; Tmax ([4]; po, ig): 120 min; half-life ([4]; po, ig): 480 min

Second part, led by results:

Row | IC50 [1] [nM] | F ([3]; ig) [%] | AUC ([3]; iv) [ng·h/mL] | Cmax ([3]; iv) [ng/mL] | Tmax ([3]; iv) [min] | clearance ([3]; iv) [mL/min/kg] | half-life ([3]; iv) [min] | Vd ([3]; iv) [L/kg] | AUC ([3]; po, ig) [ng·h/mL] | Cmax ([3]; po, ig) [ng/mL] | Tmax ([3]; po, ig) [min] | half-life ([3]; po, ig) [min] | F ([4]; ig) [%] | AUC ([4]; iv) [ng·h/mL] | Cmax ([4]; iv) [ng/mL] | Tmax ([4]; iv) [min] | clearance ([4]; iv) [mL/min/kg] | half-life ([4]; iv) [min] | Structure (SMILES) | aPTT EC1.5× [2] [µM] | aPTT EC2× [2] [µM] | also measured
4 | 18.5 | 8.6 | 889 | 1780 | 4.98 | 22.6 | 48 | 0.915 | 461 | 125 | 37.5 | 158 | – | – | – | – | – | – | CC(=O)c1ccc(Cl)cc1-c1cc(=O)n([C@@H](Cc2ccccc2)C(=O)Nc2ccc(C(=O)O)cc2)nc1OC(F)F [Example 25, (S)-4-(2-(4-(2-acetyl-5-chlorophenyl)-3-(difluoromethoxy)-6-oxopyridazin-1(6H)-yl)-3-phenylpropanamido)benzoic acid] | 1.782 | 9.452 | –
5 | 13.2 | 8.1 | 1090 | 2530 | 4.98 | 16.6 | 40.6 | 0.444 | 481 | 160 | 22.5 | 81 | – | – | – | – | – | – | CCOc1nn([C@@H](Cc2ccccc2)C(=O)Nc2ccc(C(=O)O)cc2)c(=O)cc1-c1cc(Cl)ccc1C(C)=O [Example 16, (S)-4-(2-(4-(2-acetyl-5-chlorophenyl)-3-ethoxy-6-oxopyridazin-1(6H)-yl)-3-phenylpropanamido)benzoic acid] | 1.005 | 4.768 | –
6 | 1.52 | 0.1 | 599 | 1840 | 4.98 | 29.1 | 28 | 0.471 | – | 3 | 30 | – | – | – | – | – | – | – | COc1nn([C@@H](Cc2ccccc2)C(=O)Nc2ccc3[nH]c(C(=O)O)cc3c2)c(=O)cc1-c1cc(Cl)ccc1C(C)=O [Example 15, (S)-5-(2-(4-(2-acetyl-5-chlorophenyl)-3-methoxy-6-oxopyridazin-1(6H)-yl)-3-phenylpropanamido)-1H-indol-2-formic acid] | 0.531 | 1.749 | –
